In paper PMC8741576 (Molecular Diversity, 2022):
Where two headings read alike, the source gives them in different places.

Tests used:
[1] = tested on: LN-229 glioblastoma cells; assay: Antiproliferative screening, MTS cell viability assay; format: cell-based; settings: Homo sapiens
[2] = tested on: Z-138 non-Hodgkin lymphoma cells; assay: Antiproliferative screening, IncuCyte cell growth; format: cell-based; settings: Homo sapiens
[3] = tested on: HEL 299 normal human lung fibroblasts; assay: Antiproliferative screening on noncancerous cells; settings: for IC50: Homo sapiens, HEL 299, read-out: IC50 HEL 299; for Cytotoxicity against noncancerous cells in words: HEL 299
[4] = tested on: HCT-116 colorectal carcinoma cells; assay: Antiproliferative screening, MTS cell viability assay; format: cell-based; settings: Homo sapiens
[5] = tested on: HL-60 acute myeloid leukemia cells; assay: Antiproliferative screening, IncuCyte cell growth; format: cell-based; settings: Homo sapiens
[6] = tested on: Capan-1 pancreatic adenocarcinoma cells; assay: Antiproliferative screening, MTS cell viability assay; format: cell-based; settings: Homo sapiens
[7] = tested on: K-562 chronic myeloid leukemia cells; assay: Antiproliferative screening, IncuCyte cell growth; format: cell-based; settings: Homo sapiens
[8] = tested on: DND-41 acute lymphoblastic leukemia cells; assay: Antiproliferative screening, IncuCyte cell growth; format: cell-based; settings: Homo sapiens
[9] = tested on: NCI-H460 lung carcinoma cells; assay: Antiproliferative screening, MTS cell viability assay; format: cell-based; settings: Homo sapiens
in vitro = settings: human
human coronavirus 229E = settings: HEL cell culture
[10] = Cytotoxicity in MT-4 cell culture; format: cell-based; settings: human, MT-4 cells
[11] = LN-229, 72 h, read-out: IC50 LN-229
[12] = Z-138, 72 h, read-out: IC50 Z-138
[13] = HCT-116, 72 h, read-out: IC50 HCT-116
[14] = HL-60, 72 h, read-out: IC50 HL-60
[15] = CAPAN-1, 72 h, read-out: IC50 Capan-1
[16] = K562, 72 h, read-out: IC50 K-562
[17] = DND41, 72 h, read-out: IC50 DND-41
[18] = NCI-H460, 72 h, read-out: IC50 NCI-H460
[19] = HCT-116, read-out: IC50 HCT-116
[20] = CAPAN-1, read-out: IC50 Capan-1
[21] = NCI-H460, read-out: IC50 NCI-H460

| SMILES | IC50 [1, 11] [µM] | IC50 [2, 12] [µM] | IC50 [3] [µM] | IC50 [4, 13] [µM] | IC50 [5, 14] [µM] | IC50 [6, 15] [µM] | IC50 [7, 16] [µM] | IC50 [8, 17] [µM] | IC50 [9, 18] [µM] | other results |
| --- | --- | --- | --- | --- | --- | --- | --- | --- | --- | --- |
| O=C(NCCCCNc1ccnc2cc(Cl)ccc12)c1ccccc1NCc1ccccc1 [Compound 1, 2-(Benzylamino)-N-{4-[(7-chloroquinolin-4-yl)amino]butyl}benzamide] | 53.5 ± 12.2 | > 100 | 8 ± 4.4 | > 100 | > 100 | 57.6 ± 14.6 | 55.7 ± 10 | > 100 | > 100 | – |
| CC(C)(C)OC(=O)Nc1cc(Cl)ccc1C(=O)NCCCCNc1ccnc2cc(Cl)ccc12 [Compound 2, tert-Butyl {5-chloro-2-[[4-[(7-chloroquinolin-4-yl)amino]butyl]carbamoyl]phenyl}carbamate] | 30.1 ± 2.1 | 28.6 ± 14.6 | > 100 | 32.4 ± 20 | 41.5 ± 17 | 20.4 ± 9 | 54.5 ± 18.5 | 46.2 ± 1.9 | 21.2 ± 10 | Cytotoxicity against noncancerous cells in words [3]: no cytotoxicity against noncancerous cells |
| CC(C)(C)OC(=O)Nc1ccc(Br)cc1C(=O)NCCCCNc1ccnc2cc(Cl)ccc12 [Compound 3, tert-Butyl {4-bromo-2-[[4-[(7-chloroquinolin-4-yl)amino]butyl]carbamoyl]phenyl}carbamate] | 48.4 ± 20 | 55.2 ± 9.2 | > 100 | 66.1 ± 30 | 60.5 ± 17 | 40.6 ± 4.2 | 51.2 ± 9.3 | 51.3 ± 4.4 | 69.3 ± 30.7 | Cytotoxicity against noncancerous cells in words [3]: no cytotoxicity against noncancerous cells |
| COc1cc(NC(C)CCCNC(=O)c2ccccc2NCc2ccccc2)c2ncccc2c1 (stereo not drawn) [Compound 4, 2-(Benzylamino)-N-{4-[(6-methoxyquinolin-8-yl)amino]pentyl}benzamide] | > 100 | > 100 | > 100 | > 100 | > 100 | > 100 | > 100 | > 100 | > 100 | – |
| COc1cc(NC(C)CCCNC(=O)c2ccc(Cl)cc2NC(=O)OC(C)(C)C)c2ncccc2c1 (stereo not drawn) [Compound 5, tert-Butyl {5-chloro-2-[[4-[(6-methoxyquinolin-8-yl)amino]pentyl]carbamoyl]phenyl}carbamate] | > 100 | > 100 | > 100 | > 100 | > 100 | > 100 | > 100 | > 100 | > 100 | – |
| COc1cc(NC(C)CCCNC(=O)c2cc(Br)ccc2NC(=O)OC(C)(C)C)c2ncccc2c1 (stereo not drawn) [Compound 6, tert-Butyl {4-bromo-2-[[4-[(6-methoxyquinolin-8-yl)amino]pentyl]carbamoyl]phenyl}carbamate] | > 100 | > 100 | > 100 | > 100 | > 100 | > 100 | > 100 | > 100 | > 100 | – |
| Cc1nc(CNC(=O)c2ccccc2NCc2ccccc2)cc2c1[nH]c1ccccc12 [Compound 7, 2-(Benzylamino)-N-[(1-methyl-9H-pyrido[3,4-b]indol-3-yl)methyl]benzamide] | 35.8 ± 9.3 | 21 ± 10.1 | 50.9 ± 2.7 | 34.6 ± 6 | 66.2 ± 18.3 | 27.5 ± 8.1 | 90.7 ± 18.5 | 53.5 ± 6.7 | 28.4 ± 4 | – |
| Cc1nc(CNC(=O)c2ccc(Cl)cc2NC(=O)OC(C)(C)C)cc2c1[nH]c1ccccc12 [Compound 8, tert-Butyl {5-chloro-2-[[(1-methyl-9H-pyrido[3,4-b]indol-3-yl)methyl]carbamoyl]phenyl}carbamate] | 20.8 ± 13.8 | 8.2 ± 1.9 | 7.1 ± 1.8 | 28.9 ± 24.1 | 6.7 ± 0.2 | 6.5 ± 2.9 | 29.1 ± 21.3 | 32.1 ± 20.8 | 8.3 ± 4.3 | – |
| Cc1nc(CNC(=O)c2cc(Br)ccc2NC(=O)OC(C)(C)C)cc2c1[nH]c1ccccc12 [Compound 9, tert-Butyl {4-bromo-2-[[(1-methyl-9H-pyrido[3,4-b]indol-3-yl)methyl]carbamoyl]phenyl}carbamate] | 8.3 ± 3.1 | 4.1 ± 1.8 | 7.5 ± 1 | 32.9 ± 7.9 | 10.8 ± 3.3 | 5.8 ± 3 | 63.1 ± 36.9 | 12.5 ± 6.9 | 3.2 ± 1.8 | – |
| O=C(NCCCCNc1ccnc2ccccc12)c1ccccc1NCc1ccccc1 [Compound 10, 2-(Benzylamino)-N-[4-(quinolin-4-ylamino)butyl]benzamide] | 3 ± 2 | 4.6 ± 2 | 33.6 ± 15.6 | 7.4 ± 1.5 | 14.9 ± 7.3 | 4.2 ± 3.4 | 5.9 ± 3.5 | 8 ± 3.2 | 2.2 ± 0.8 | CC50 (in vitro): 5.6 ± 3 µM; SI, selectivity index (CC50 to EC50 ratio) 229E (human coronavirus 229E): > 7 |
| Nc1ccccc1C(=O)NCCCCNc1ccnc2ccccc12 [Compound 11, 2-Amino-N-[4-(quinolin-4-ylamino)butyl]benzamide] | 39.7 ± 4.4 | 31.2 ± 1.1 | 41.6 ± 1.2 | 45.4 ± 4.9 | 44.7 ± 11 | 62.2 ± 9.7 | 18.7 ± 6.7 | 59.6 ± 1.7 | 87.4 ± 12.6 | CC50 (in vitro): 46.3 ± 1.2 µM; SI, selectivity index (CC50 to EC50 ratio) 229E (human coronavirus 229E): 6.0 |
| COc1cc(NC(C)CCCNC(=O)c2ccc(Cl)cc2N)c2ncccc2c1 (stereo not drawn) [Compound 15, 2-Amino-4-chloro-N-{4-[(6-methoxyquinolin-8-yl)amino]pentyl}benzamide] | > 100 | > 100 | > 100 | > 100 | > 100 | > 100 | > 100 | > 100 | > 100 | – |
| Cc1nc(CNC(=O)c2ccccc2N)cc2c1[nH]c1ccccc12 [Compound 17, 2-Amino-N-[(1-methyl-9H-pyrido[3,4-b]indol-3-yl)methyl]benzamide] | 41 ± 0.3 | 35.1 ± 4.5 | 32.8 ± 3.3 | 48.4 ± 3.8 | 44 ± 8.4 | 31.4 ± 1.9 | 52 ± 5.3 | 61.5 ± 2.1 | 54.8 ± 5.9 | – |
| Cc1nc(CNC(=O)c2ccc(Cl)cc2N)cc2c1[nH]c1ccccc12 [Compound 18, 2-Amino-4-chloro-N-[(1-methyl-9H-pyrido[3,4-b]indol-3-yl)methyl]benzamide] | 44 ± 7.6 | > 100 | > 100 | 55 ± 17.7 | > 100 | 56.3 ± 24.1 | > 100 | > 100 | 43.8 ± 8.4 | – |
| Cc1nc(CNC(=O)c2cc(Br)ccc2N)cc2c1[nH]c1ccccc12 [Compound 19, 2-Amino-5-bromo-N-[(1-methyl-9H-pyrido[3,4-b]indol-3-yl)methyl]benzamide] | 46.2 ± 7.5 | 55.5 ± 12.1 | 82.6 ± 17.4 | 60.8 ± 31 | 66.3 ± 34 | 38.9 ± 5.8 | 64.9 ± 4.9 | 68.3 ± 12.2 | 55 ± 5 | – |
| CC(=O)O[C@@]12CO[C@@H]1C[C@H](O)[C@@]1(C)C(=O)[C@H](O)C3=C(C)[C@@H](OC(=O)[C@H](O)[C@@H](NC(=O)OC(C)(C)C)c4ccccc4)C[C@@](O)([C@@H](OC(=O)c4ccccc4)[C@H]21)C3(C)C [DTX, docetaxel, reference compound] | – | – | – | – | – | – | – | – | – | IC50 ([1]; LN-229, read-out: IC50 LN-229): 0.0018 ± 0.003 µM; IC50 ([2]; Z-138, read-out: IC50 Z-138): 0.0025 ± 0.003 µM; IC50 [4, 19]: 0.0025 ± 0.003 µM; IC50 ([5]; HL-60, read-out: IC50 HL-60): 0.0137 ± 0.003 µM; IC50 [6, 20]: 0.01 ± 0.003 µM; IC50 ([7]; K562, read-out: IC50 K-562): 0.0089 ± 0.003 µM; IC50 ([8]; DND41, read-out: IC50 DND-41): 0.0055 ± 0.003 µM; IC50 [9, 21]: 0.0271 ± 0.003 µM |
| N#C[C@@]1(c2ccc3c(N)ncnn23)O[C@H](CO)[C@@H](O)[C@H]1O [GS-441524] | – | – | – | – | – | – | – | – | – | CC50 (in vitro): > 100 µM |
| Cc1nc(CN)cc2c1[nH]c1ccccc12 [HA, (1-methyl-9H-pyrido[3,4-b]indol-3-yl)methanamine, reference compound] | > 100 | 57.4 ± 32.6 | > 100 | > 100 | > 100 | 68.6 ± 3.4 | > 100 | > 100 | 85.1 ± 14.8 | CC50 (in vitro): > 100 µM; CC50 at 5 days [10]: 22.3 ± 4.9 µM |
| CN[C@@H]1C[C@H]2O[C@@](C)([C@@H]1OC)n1c3ccccc3c3c4c(c5c6ccccc6n2c5c31)C(=O)NC4 [STS, staurosporine, reference compound] | – | – | – | – | – | – | – | – | – | IC50 [4, 19]: 0.0687 ± 0.003 µM; IC50 ([5]; HL-60, read-out: IC50 HL-60): 0.0598 ± 0.003 µM; IC50 [6, 20]: 0.0382 ± 0.003 µM; IC50 [9, 21]: 0.0384 ± 0.003 µM |
